Data taken from US12358921B2, “Antiviral heterocyclic compounds” (priority 2022, dated 2025).

Tests used:
Assay type in all cases: cell-based
hMPV A2 TN/94-49 [1] = test: HMPV antiviral assay Method 2 (LLC-MK2 cells with CP-100-356, ATP-Lite); details: hMPV A2 TN/94-49, LLC-MK2 cells, 4 μM CP-100-356, Method 2
How it was run: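 LLC-MK2 cells infected in suspension with hMPV A2 TN/94-49 at MOI 0.16, in serum-free OptiMEM with final 2 μg/mL TPCK-trypsin and 2 μM CP-100-356 (P-gp inhibitor). Compounds tested in duplicate, top 200 nM, 2.5-fold, 10 points; 7 days at 37 °C. ATP-Lite cell health normalised to controls; EC50 by four-parameter fit.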

hMPV A2 TN/94-49 [2] = test: HMPV antiviral assay Method 1 (LLC-MK2 cells, ATP-Lite); details: hMPV A2 TN/94-49, LLC-MK2 cells
How it was run: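 LLC-MK2 cells infected in suspension with hMPV A2 TN/94-49 at MOI 0.005, 5,000 cells/well, in serum-free OptiMEM with 2 μg/mL TPCK-trypsin (final) and CaCl2; compounds in duplicate, 10 points, 2 μM top, 2.5-fold dilutions. After 7 days at 37 °C, cell health by ATP-Lite luminescence; EC50 by four-parameter fit.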

[3] = tested on: HUMAN RSV-A (“LONG” STRAIN); test: RSV-A assay (CPE, ATPlite) in Hep-2 cells; details: human respiratory syncytial virus, 120 h, MOI 0.1, 5-day incubation
How it was run: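 Hep-2 cells (8,000/well) given 2-fold serial compound dilutions in duplicate, then infected with RSV-A Long strain at MOI 0.1. After 5 days, virus-induced cytopathic effect quantified as cellular ATP by ATPlite luminescence, against virus-only and uninfected controls; EC50 reported in ranges.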

SMILES	EC50 (hMPV A2 TN/94-49 [1])	EC50 (hMPV A2 TN/94-49 [2])	EC50 [3]
COc1cc(C(=O)NC[C@@](O)(c2cccc(F)c2)c2cc3c(c(-c4cccc(Cl)c4Cl)n2)OC[C@]3(C)C(N)=O)cc2oc(C3CC3)nc12 [Example 292]	< 200 nM	< 500 nM	< 200 nM
COc1cc(C(=O)NC[C@](O)(c2cc3c(c(-c4cc(F)c(F)cc4F)n2)OC[C@]3(C)C(N)=O)C2CC(F)(F)C2)cc2cn(C(F)F)nc12 [Example 33]	< 200 nM	> 500 nM	< 200 nM
COc1cc(C(=O)NC[C@](O)(c2cc3c(c(-c4cc(F)c(F)cc4F)n2)OC[C@]3(C)C(N)=O)C2CC2)cc2cc(C)c(F)nc12 [Example 21]	< 200 nM	< 500 nM	< 200 nM
COc1cc(C(=O)NC[C@@](O)(c2ccsc2)c2cc3c(c(-c4cc(F)c(F)cc4F)n2)OC[C@]3(C)C(N)=O)cc2cn(C3(F)CC3)nc12 [Example 179]	< 200 nM	< 500 nM	< 200 nM
C[C@]1(C(N)=O)COc2c1cc([C@@](O)(CNC(=O)c1cc(OC3CC3)c3nn(C4(F)CC4)cc3c1)C1CC1)nc2-c1cc(Cl)c(F)cc1F [Example 5]	< 200 nM	< 500 nM	< 200 nM
C[C@]1(C(N)=O)COc2c1cc([C@@](O)(CNC(=O)c1ccc3nc(C4CC4)oc3c1)c1ccccc1)nc2-c1cc(Cl)c(F)cc1F [Example 88]	< 200 nM	< 500 nM	< 200 nM
C[C@]1(C(N)=O)COc2c1cc([C@@](O)(CNC(=O)c1cc(OC3CC3)c3nn(C4CC4)cc3c1)C1CC1)nc2-c1ccc(F)c(Cl)c1Cl [Example 23]	< 200 nM	< 500 nM	< 200 nM
COc1cc(C(=O)NC[C@](O)(c2cc3c(c(-c4cc(Cl)c(F)cc4F)n2)OC[C@]3(C)C(N)=O)c2nccs2)cc2cn(C3CC3)nc12 [Example 475]	< 200 nM	< 500 nM	< 200 nM
COc1cc(C(=O)NC[C@@](O)(c2ccc(F)cc2)c2cc3c(c(-c4cc(Cl)c(F)cc4F)n2)OC[C@]3(C)C(N)=O)cc2cn(C3(F)CC3)nc12 [Example 14]	< 200 nM	< 500 nM	< 200 nM
COc1cc(C(=O)NC[C@@](O)(c2cccc(F)c2)c2cc3c(c(-c4ccc(F)c(Cl)c4Cl)n2)OC[C@]3(C)C(N)=O)cc2oc(C3CC3)nc12 [Example 280]	< 200 nM	< 500 nM	< 200 nM
[2H]C([2H])([2H])c1nc2ccc(C(=O)NC[C@@](O)(c3cccc(F)c3)c3cc4c(c(-c5ccc6c(c5Cl)OC(F)(F)O6)n3)OC[C@]4(C)C(N)=O)cc2o1 [Example 282]	< 200 nM	< 500 nM	< 200 nM
COc1cc(C(=O)NC[C@@](O)(c2ccccc2)c2cc3c(c(-c4ccc(F)c(Cl)c4Cl)n2)OC[C@]3(C)C(N)=O)cc2cn(C(F)F)nc12 [Example 258]	< 200 nM	< 500 nM	< 200 nM
C[C@]1(C(N)=O)COc2c1cc([C@@](O)(CNC(=O)c1cc(OC3CC3)c3nn(C4(F)CC4)cc3c1)c1ccccc1)nc2-c1cccc(Cl)c1Cl [Example 266]	< 200 nM	< 500 nM	< 200 nM
C[C@]1(C(N)=O)COc2c1cc([C@@](O)(CNC(=O)c1cc(OC3CC3)c3nn(C(F)F)cc3c1)c1ccc(F)cc1)nc2-c1ccc2c(c1Cl)OC(F)(F)O2 [Example 265]	< 200 nM	< 500 nM	< 200 nM
C[C@]1(C(N)=O)COc2c1cc([C@@](O)(CNC(=O)c1cc(OC3CC3)n3nc(C4CC4)cc3c1)C1CC1)nc2-c1cc(Cl)c(F)cc1F [Example 4]	< 200 nM	< 500 nM	< 200 nM
COc1cc(C(=O)NC[C@@](O)(c2cccc(F)c2)c2cc3c(c(-c4ccc(F)c(Cl)c4Cl)n2)OC[C@]3(C)C(N)=O)cc2oc(C)nc12 [Example 279]		< 500 nM	< 200 nM
COc1cc(C(=O)NC[C@@](O)(c2ccc(F)cc2)c2cc3c(c(-c4cc(Cl)c(F)cc4F)n2)OC[C@]3(C)C(N)=O)cc2cn(C(F)F)nc12 [Example 13]		< 500 nM	< 200 nM
COc1cc(C(=O)NC[C@@](O)(c2ccc(F)cc2)c2cc3c(c(-c4ccc5c(c4Cl)OC(F)(F)O5)n2)OC[C@]3(C)C(N)=O)cc2cc(C(F)(F)F)cnc12 [Example 26]		> 500 nM	< 200 nM
COc1cc(C(=O)NC[C@@](O)(c2ccsc2)c2cc3c(c(-c4cc(Cl)c(F)cc4F)n2)OC[C@]3(C)C(N)=O)cc2cn(C(F)F)nc12 [Example 174]		< 500 nM	< 200 nM
COc1cccc([C@](O)(CNC(=O)c2cc(OC)c3nc(C)c(Cl)cc3c2)c2cc3c(c(-c4cc(Cl)c(F)cc4F)n2)OC[C@]3(C)C(N)=O)c1 [Example 164]		< 500 nM	< 200 nM
COc1cc(C(=O)NC[C@](O)(c2cc3c(c(-c4cc(C)cc(F)c4F)n2)OC[C@]3(C)C(N)=O)C2CC2)cc2cn(C3CC3)nc12 [Example 49]		> 500 nM	< 200 nM

SMILES	EC50 (hMPV A2 TN/94-49 [1])	EC50 (hMPV A2 TN/94-49 [2])	EC50 [3]
COc1cc(C(=O)NC[C@@](O)(c2ccccc2)c2cc3c(c(-c4ccc5c(c4Cl)OC(F)(F)O5)n2)OC[C@]3(C)C(N)=O)cc2cc(C3CC3)nn12 [Example 254]		< 500 nM	< 200 nM
COc1cc(C(=O)NC[C@](O)(c2cc3c(c(-c4cc(Cl)c(F)cc4F)n2)OC[C@]3(C)C(N)=O)c2ccccc2F)cc2cn(C3CC3)nc12 [Example 136]		< 500 nM	< 200 nM
COc1cc(C(=O)NC[C@](O)(c2cc3c(c(-c4cccc(SC(F)(F)F)c4)n2)OC[C@]3(C)C(N)=O)C2CC2)cc2cn(C3CC3)nc12 [Example 36]		> 500 nM	< 200 nM
COc1cc(C(=O)NC[C@@](O)(c2ccccc2)c2cc3c(c(-c4cc(Cl)c(F)cc4F)n2)OC[C@]3(C)C(N)=O)cc2oc(C3CC3)nc12 [Example 85]	< 200 nM	< 500 nM	
COc1cc(C(=O)NC[C@@](O)(c2ccccc2)c2cc3c(c(-c4ccc5c(c4Cl)OC(F)(F)O5)n2)OC[C@]3(C)C(N)=O)cc2cn(C(F)F)nc12 [Example 253]		< 500 nM	< 200 nM
COc1cc(C(=O)NC[C@@](O)(c2ccc(F)cc2)c2cc3c(c(-c4cc(Cl)c(F)cc4F)n2)OC[C@]3(C)C(N)=O)cc2cc(C3CC3)nn12 [Example 15]		< 500 nM	< 200 nM
C[C@]1(C(N)=O)COc2c1cc([C@@](O)(CNC(=O)c1cc(OC(F)F)c3nn(C4CC4)cc3c1)C1CC1)nc2-c1ccc(F)c(F)c1Cl [Example 39]		< 500 nM	< 200 nM
CNC(=O)[C@@]1(C)COc2c1cc([C@@](O)(CNC(=O)c1cc(OC)c3nn(C4CC4)cc3c1)c1ccccc1)nc2-c1cc(Cl)c(F)cc1F [Example 141]		< 500 nM	< 200 nM
COc1cc(C(=O)NC[C@@](O)(c2ccc(F)cc2)c2cc3c(c(-c4ccc(F)c(Cl)c4Cl)n2)OC[C@]3(C)C(N)=O)cc2cn(C(F)F)nc12 [Example 42]		< 500 nM	< 200 nM
[2H]c1nc2c(OC)cc(C(=O)NC[C@](O)(c3cc4c(c(-c5cc(F)c(F)cc5F)n3)OC[C@]4(C)C(N)=O)C3CC3)cc2cc1Br [Example 30]		< 500 nM	< 200 nM
Cc1nc2c(OC(F)F)cc(C(=O)NC[C@@](O)(c3cccc(F)c3)c3cc4c(c(-c5cc(Cl)c(F)cc5F)n3)OC[C@]4(C)C(N)=O)cc2cc1Br [Example 135]		> 500 nM	< 200 nM
COc1cc(C(=O)NC[C@](O)(c2cc3c(c(-c4cc(F)c(F)c(F)c4Cl)n2)OC[C@]3(C)C(N)=O)C(F)(F)F)cc2cn(C3CC3)nc12 [Example 59]		< 500 nM	< 200 nM
COc1cc(C(=O)NC[C@@](O)(c2ccccc2)c2cc3c(c(-c4cc(C(F)(F)F)ccc4F)n2)OC[C@]3(C)C(N)=O)cc2cc(C3CC3)nn12 [Example 149]		< 500 nM	< 200 nM
C[C@]1(C(N)=O)COc2c1cc([C@@](O)(CNC(=O)c1cc(OC3CC3)c3nn(C4CC4)cc3c1)C1CC1)nc2-c1cc(Cl)c(F)cc1F [Example 2]		< 500 nM	< 200 nM
COc1cc(C(=O)NC[C@@](O)(c2cccc(F)c2)c2cc3c(c(-c4cc(Cl)c(F)cc4F)n2)OC[C@]3(C)C(N)=O)cc2cn(C(F)F)nc12 [Example 134]		< 500 nM	< 200 nM
COc1cc(C(=O)NC[C@@](O)(c2ccc(F)cc2)c2cc3c(c(-c4cc(Cl)c(F)cc4F)n2)OC[C@]3(C)C(N)=O)cc2cc(Cl)c(C)nc12 [Example 17]		< 500 nM	< 200 nM
COc1cc(C(=O)NC[C@](O)(c2cc3c(c(-c4ccc5c(c4Cl)OC(F)(F)O5)n2)OC[C@]3(C)C(N)=O)C(F)(F)F)cc2cn(C3CC3)nc12 [Example 52]		> 500 nM	< 200 nM
COc1cc(F)ccc1-c1nc([C@@](O)(CNC(=O)c2cc(OC)c3nn(C4CC4)cc3c2)C2CC2)cc2c1OC[C@]2(C)C(N)=O [Example 67]		> 500 nM	< 200 nM
COc1cc(C(=O)NC[C@@](O)(c2ccccc2)c2cc3c(c(-c4cc(Cl)c(F)cc4F)n2)OC[C@]3(C)C(=O)NC2CC2)cc2cn(C3CC3)nc12 [Example 143]		< 500 nM	< 200 nM
COc1cc(C(=O)NC[C@](O)(c2cc3c(c(-c4cc(Cl)cc(Cl)c4Cl)n2)OC[C@]3(C)C(N)=O)C2CC2)cc2cn(C3CC3)nc12 [Example 61]		< 500 nM	< 200 nM
